In series [1] the test system is ERK phosphorylation in H358 cells. Nature of the series: In-cell western blot assay for ERK phosphorylation in H358 cells. Type of series: cell-based. Conditions: Homo sapiens, NCI-H358, 10000 nM to 0.051 nM, 3-fold dilution, read-out: H358 p-ERK IC50. On the procedure: In-Cell Western Blot Assay for ERK Phosphorylation in H358 Cells
H358 cells were thawed and pre-cultured for 3 days to be in a good state (RPMI 1640+10% FBS+1% P/S). The cells were plated on to a 384-well plate, and a test compound, positive control compounds (AMG510 and isomers thereof) and a negative control were added. The compound was at concentrations from 10000 nM to 0.051 nM. 3-fold dilution was performed. The mixture was well mixed and incubated at 37° C. and 5% CO2. The cells were washed with PBS and suspended in methanol. After another washing with PBS, a blocking buffer was added. After 1 h of blocking at room temperature, a primary antibody mixture (rabbit anti pERK, mouse anti GAPDH) was added, followed by overnight incubation at 4° C. The cells were washed 3 times with PBST, and a secondary antibody mixture (goat anti rabbit 800CW and goat anti mouse 680RD) was added, followed by incubation at room temperature in the dark. The 384-well plate was reversed and centrifuged at 1000 rpm for 1 min, and read on an Odyssey CLx fluorescence imaging system for fluorescence signal values, which was corrected using DMSO and ARS1620. The specific calculation is as follows:
Relative Signal=Signal Value(total channel 800)/Signal Value(total channel 700)
Relative pERK=(Sample−Ave_L)/(Ave_H−Ave_L).
The IC50 values of the compounds were calculated using a four-parameter fitting algorithm, specifically as follows:
Y=Bottom+(Top−Bottom)/(1+10^((Log IC50−X)×HillSlope))

Series [2] is described as follows: Plasma protein binding (PPB), RED plate dialysis, human plasma. Conditions: 1 μM, 37° C., 5 h, read-out: PPB (% free state) H. It counts as in vitro ADME. On the procedure: (§1) Human (H), Rat (R) and Mouse (M) Plasma Protein Binding (PPB)
(§2) A test compound and a positive control were each mixed with blank plasma to a final concentration of 1 μM. The mixture was added to a RED plate plasma sample chamber, followed by addition of a dialysis buffer in the buffer chamber. The sample was prepared in triplicate for each compound. The chambers were sealed, and the plate was incubated at 37° C. with shaking at 60 rpm for 5 h. After incubation, the samples were transferred out of the plasma chamber and the buffer chamber and treated as shown in Table 5. After centrifugation at 5594 g for 15 min, the supernatant was collected and analyzed by LC/MS/MS.
(§3) The compound concentration in each sample was expressed in terms of the ratio between peak areas (ratio of peak area of compound to peak area of internal standard) by mass spectrometry analysis, and the plasma protein binding was calculated according to the following formulas.
(§4) % free state=(buffer chamber peak area ratio/plasma chamber peak area ratio)×100%
(§5) % bound state=100%−% free state

A further series concerns plasma proteins. The description is as above. Type of series: in vitro ADME. As for the experimental part: as §1, §2, §3, §4, §5
Series [3] in a line: Plasma protein binding (PPB), RED plate dialysis, rat plasma. It counts as in vitro ADME. The settings on record: 37° C., read-out: PPB (% free state) R. As for the experimental part:
as §1, §2, §3, §4, §5

The nature of series [4]: Plasma protein binding (PPB), RED plate dialysis, mouse plasma. It counts as in vitro ADME. The settings on record: 37° C., read-out: PPB (% free state) M. As for the experimental part:
as §1, §2, §3, §4, §5

The target in series [5] is KRAS G12C protein (GDP-KRAS-4B-G12C) (Homo sapiens, UniProt P01116, G12C). Nature of the series: Assay for binding rate to KRAS G12C protein by LC-MS method. The settings on record: 3 uM compound; for Binding rate to KRAS G12C protein (LC-MS POC, %) 3 uM/5 min: 5 min incubation at room temperature; for Binding rate to KRAS G12C protein (LC-MS POC, %) 3 uM/30 min: 30 min incubation at room temperature. On the procedure: Assay for Binding Rate to KRAS G12C Protein by LC-MS Method
A 10 mM stock solution of a test compound in DMSO was prepared. […] An equal volume of GDP buffer (20 mM Hepes, pH 7.5, 50 mM NaCl, 0.5 mM MgCl2, 10 mM EDTA, 2 mM DTT, GDP) was added to prepare KRASG12C protein loaded with GDP.
After incubation at room temperature for 5 min and 30 min, the reaction was terminated by addition of 5 μL of 5% formic acid. After being centrifuged at 15,000 rpm for 10 min, the mixture was subjected to LC-MS analysis and data analysis.
The percent binding of a test compound to KRASG12C protein was calculated as: Percent binding to KRAS G12C (%)=peak height of conjugate of test compound and KRAS G12C protein/[peak height of conjugate of test compound and KRAS G12C protein+peak height of free KRAS G12C protein] x 100.

We go through 24 molecules from patent publication US20230061083A1, “KRAS G12C INHIBITOR COMPOUND AND USE THEREOF” (Evopoint Biosciences Co., Ltd., priority 2019, published 2023).

Structures are written as SMILES.

In general, IC50 refers to the concentration needed to halve the response being measured. Regarding `C=CC(=O)N1CCN(c2nc(=O)n(-c3c(C)ccnc3CC)c3c2cc(F)c(-c2c(F)cccc2F)[n+]3[O-])[C@@H](C)C1` [SZ-014131], the IC50 in series [1] was found to be 2090 nM.
As for `C=CC(=O)N1CCN(c2nc(=O)n(-c3c(C(C)C)cccc3C(C)C)c3c2cc(F)c(-c2ccccc2)[n+]3[O-])[C@@H](C)C1` [SZ-014130], the concentration for half-maximal inhibition (IC50) in series [1] turned out to be 139 nM. Besides, the fraction unbound at 5 h, 1 μM in series [2] was 0.074; in series [3], 0.188; in series [4], 0.039. The “molar concentration not bound to plasma proteins, times higher than reference compound SZ-014142” value in the series on plasma proteins (versus SZ-014142) is recorded as “no less than 30 times”.
With `C=CC(=O)N1CCN(c2nc(=O)n(-c3c(C)ccnc3C(C)C)c3nc(-c4c(O)cccc4F)c(F)cc23)[C@@H](C)C1` [SZ-014004A, reference compound], the IC50 in series [1] amounted to 12 nM. The fraction unbound at 5 h, 1 μM in series [2] stood at 0.068; in series [3], 0.145; in series [4], 0.112.
As to `C=CC(=O)N1CCN(c2nc(=O)n(-c3c(C(C)C)cccc3C(C)C)c3c2cc(Cl)c(-c2c(O)cccc2F)[n+]3[O-])[C@@H](C)C1` [SZ-014116AB], the IC50 in series [1] was found to be 2.8 nM.
Regarding `C=CC(=O)N1CCN(c2nc(=O)n(-c3c(C(C)C)ncnc3C(C)C)c3c2cc(F)c(-c2ccccc2)[n+]3[O-])[C@@H](C)C1` [SZ-014129], the IC50 in series [1] stood at 90 nM. Also, the fraction unbound at 5 h, 1 μM in series [2] is 0.455; in series [3] it was 0.517; in series [4], 0.336. Also, the “molar concentration not bound to plasma proteins, times higher than reference compound SZ-014141” value in the series on plasma proteins (versus SZ-014141) is reported as “no less than 10 times”.
In the case of `C=CC(=O)N1CCN(c2nc(=O)n(-c3c(C(C)C)ncnc3C(C)C)c3c2cc(Cl)c(-c2ccccc2F)[n+]3[O-])[C@@H](C)C1` [SZ-014108A/B], in series [1], the concentration for half-maximal inhibition (IC50) was 9.4 nM.
Take `C=CC(=O)N1CCN(c2nc(=O)n(-c3c(C(C)C)ncnc3C(C)C)c3nc(-c4c(F)cccc4F)c(F)cc23)[C@@H](C)C1` [SZ-014138, reference compound]: the IC50 in series [1] is 34 nM. The results for the fraction unbound at 5 h, 1 μM in series [2], in series [3] and in series [4] were 0.129, 0.203 and 0.011, respectively.
Consider `C=CC(=O)N1CCN(c2nc(=O)n(-c3c(C(C)C)ncnc3C(C)C)c3nc(-c4ccccc4)c(F)cc23)[C@@H](C)C1` [SZ-014141, reference compound], for which the half-maximal inhibitory concentration (IC50) in series [1] was determined as 170 nM. Further, the fraction unbound at 5 h, 1 μM came out at 0.04 in series [2], 0.127 in series [3] and 0.008 in series [4].
For `C=CC(=O)N1CCN(c2nc(=O)n(-c3c(C(C)C)ncnc3C(C)C)c3c2cc(F)c(-c2ccccc2O)[n+]3[O-])[C@@H](C)C1` [SZ-014111A/B], the IC50 in series [1] came out at 31 nM.
On the same count and under the same terms, for `C=CC(=O)N1CCN(c2nc(=O)n(-c3c(C(C)C)ncnc3C(C)C)c3c2cc(F)c(-c2cccc4ccccc24)[n+]3[O-])[C@@H](C)C1` [SZ-014013A/B] the value was 36 nM.
`C=CC(=O)N1CCN(c2nc(=O)n(-c3c(C(C)C)cccc3C(C)C)c3nc(-c4ccccc4)c(F)cc23)[C@@H](C)C1` [SZ-014142, reference compound]: the IC50 in series [1] was 296 nM. For the same molecule, the fraction unbound at 5 h, 1 μM in series [2] is 0.002; in series [3], 0.008; in series [4] it was 0.047.
As to `C=CC(=O)N1CCN(c2nc(=O)n(-c3c(C)ccnc3C(C)C)c3c2cc(F)c(-c2ccccc2O)[n+]3[O-])[C@@H](C)C1` [SZ-014010A/B], in series [5], the “Binding rate to KRAS G12C protein (LC-MS POC, %) 3 uM/5 min” value (shortened to “Binding rate … (LC-MS POC, %) 3 uM/5 min”) is listed as 47.7% and the “Binding rate to KRAS G12C protein (LC-MS POC, %) 3 uM/30 min” value (“Binding rate … (LC-MS POC, %) 3 uM/30 min” below) is reported as 84.9%. For the same molecule, the IC50 in series [1] turned out to be 442 nM.
With `C=CC(=O)N1CCN(c2nc(=O)n(-c3c(C)ccnc3C(C)C)c3c2cc(F)c(-c2ccccc2F)[n+]3[O-])[C@@H](C)C1` [SZ-014011A/B], in series [5], the “Binding rate … (LC-MS POC, %) 3 uM/5 min” value came to 37.8% and the “Binding rate … (LC-MS POC, %) 3 uM/30 min” value is recorded as 75.5%. Besides, the IC50 in series [1] was found to be 405 nM.
On to `C=CC(=O)N1CCN(c2nc(=O)n(-c3c(C(C)C)ncnc3C(C)C)c3c2cc(F)c(-c2c(F)ccc(F)c2O)[n+]3[O-])[C@@H](C)C1` [SZ-014062AB], for which the half-inhibitory concentration (IC50) in series [1] turned out to be 207 nM.
Regarding `C=CC(=O)N1CCN(c2nc(=O)n(-c3c(C(C)C)ncnc3C(C)C)c3c2cc(Cl)c(-c2ccccc2O)[n+]3[O-])[C@@H](C)C1` [SZ-014031A], the IC50 in series [1] turned out to be 11.4 nM.
`C=CC(=O)N1CCN(c2nc(=O)n(-c3c(C(C)C)cccc3C(C)C)c3nc(-c4c(F)cccc4F)c(F)cc23)[C@@H](C)C1` [SZ-014139, reference compound]: the 50% inhibitory concentration (IC50) in series [1] stood at 81 nM. Also, the fraction unbound at 5 h, 1 μM came out at 0.015 in series [2], 0.022 in series [3] and 0.007 in series [4].
Turning to `C=CC(=O)N1CCN(c2nc(=O)n(-c3c(C(C)C)ncnc3C(C)C)c3c2cc(F)c(-c2c(F)cccc2Cl)[n+]3[O-])[C@@H](C)C1` [SZ-014082A/B], in series [1], the IC50 came to 60 nM.
In the case of `C=CC(=O)N1CCN(c2nc(=O)n(-c3c(CC)ncnc3CC)c3c2cc(F)c(-c2c(F)cccc2F)[n+]3[O-])[C@@H](C)C1` [SZ-014119], in series [5], the “Binding rate … (LC-MS POC, %) 3 uM/5 min” value is on record as 20.8% and the “Binding rate … (LC-MS POC, %) 3 uM/30 min” value is recorded as 79.2%. Moreover, in series [1], the IC50 was found to be 691 nM.
Regarding `C=CC(=O)N1CCN(c2nc(=O)n(-c3c(C(C)C)ncnc3C(C)C)c3c2cc(F)c(-c2cccc(F)c2O)[n+]3[O-])[C@@H](C)C1` [SZ-014043], in series [5], the “Binding rate … (LC-MS POC, %) 3 uM/5 min” value is 58.5% and the “Binding rate … (LC-MS POC, %) 3 uM/30 min” value is reported as 90.0%. Moreover, in series [1], the IC50 is 494 nM.
`[2H]c1c([2H])c([2H])c(-c2c(F)cc3c(N4CCN(C(=O)C=C)C[C@@H]4C)nc(=O)n(-c4c(C(C)C)ncnc4C(C)C)c3[n+]2[O-])c(O)c1[2H]` [SZ-014051A/B]: the IC50 in series [1] is 44 nM.
For `C=CC(=O)N1CCN(c2nc(=O)n(-c3c(C(C)C)ncnc3C(C)C)c3c2cc(F)c(-c2cc(F)ccc2O)[n+]3[O-])[C@@H](C)C1` [SZ-014044], in series [5], the “Binding rate … (LC-MS POC, %) 3 uM/5 min” value was found to be 84.1% and the “Binding rate … (LC-MS POC, %) 3 uM/30 min” value is 97.2%. Moreover, the IC50 in series [1] was determined as 145 nM.
`C=CC(=O)N1CCN(c2nc(=O)n(-c3c(C)ccnc3C(C)C)c3c2cc(F)c(-c2c(F)cccc2F)[n+]3[O-])[C@@H](C)C1` [SZ-014077A/B]: the IC50 in series [1] came out at 191 nM.
For `C=CC(=O)N1CCN(c2nc(=O)n(-c3c(C)ccnc3C(C)C)c3c2cc(F)c(-c2c(O)cccc2F)[n+]3[O-])[C@@H](C)C1` [SZ-014089A/B], in series [1], the IC50 was 143 nM.
Regarding `C=C(F)C(=O)N1CCN(c2nc(=O)n(-c3c(C(C)C)ncnc3C(C)C)c3nc(-c4c(F)cccc4F)c(F)cc23)[C@@H](C)C1` [SZ-014137, reference compound], in series [1], the IC50 came to 3540 nM. Further, the fraction unbound at 5 h, 1 μM turned out to be 0.076 in series [2], 0.114 in series [3] and 0.005 in series [4].
